In the supplement of paper PMC10307832:

Legend:
Experiment in all cases: relative viability (nuclei count vs DMSO), 5 days (fraction); higher = more cells survive
[1] = system: ABC-1
In short: (§1)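 The day after seeding in 1536-well plates, lung cancer cell lines were treated by pin tool with a single drug, or with a fixed anchor-drug dose together with five library-drug doses (not always all listed) in √10 steps. After 5 days, a combined fix-and-stain solution (final 0.05% Triton X-100, 1% formaldehyde, 1 ug/ml Hoechst) was added. Nuclei counted on 4× images gave relative viability as treated counts over vehicle counts, reported as the median of duplicate plates.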

[2] = system: EKVX
In short: as §1

[3] = system: NCI-H1623
In short: as §1

[4] = system: NCI-H2126
In short: as §1

[5] = system: NCI-H522
In short: as §1

[6] = system: A549
In short: as §1

[7] = system: Calu-6
In short: as §1

[8] = system: EBC-1
In short: as §1

[9] = system: IA-LM
In short: as §1

[10] = system: NCI-H1299
In short: as §1

[11] = system: NCI-H1648
In short: as §1

[12] = system: NCI-H1703
In short: as §1

Work on O=C(O)c1ccc(-c2c[nH]c3ncc(-c4ccccc4)cc23)cc1C1CCCC1 + CCNC(=O)c1noc(-c2cc(C(C)C)c(O)cc2O)c1-c1ccc(CN2CCOCC2)cc1 [Luminespib] (partner 0.01 µM) yielded a relative viability ([1]; first compound 0.1265 µM) of 0.572, a relative viability ([1]; first compound 1.265 µM) of 0.509 and a relative viability ([2]; first compound 0.04 µM) of 0.885. It also gave a relative viability ([2]; first compound 0.1265 µM) of 0.92, a relative viability ([2]; first compound 0.4 µM) of 0.931 and a relative viability ([2]; first compound 1.265 µM) of 0.615. The relative viability ([3]; first compound 0.04 µM) was 0.445, the relative viability ([3]; first compound 0.1265 µM) was 0.471 and the relative viability ([3]; first compound 0.4 µM) was 0.512. It also gave a relative viability ([3]; first compound 1.265 µM) of 0.496, a relative viability ([4]; first compound 0.04 µM) of 0.937 and a relative viability ([4]; first compound 0.1265 µM) of 0.955. It also gave a relative viability ([4]; first compound 0.4 µM) of 0.796, a relative viability ([4]; first compound 1.265 µM) of 0.619 and a relative viability ([5]; first compound 0.04 µM) of 1.37. It also gave a relative viability ([5]; first compound 0.1265 µM) of 1.19, a relative viability ([5]; first compound 0.4 µM) of 0.998 and a relative viability ([5]; first compound 1.265 µM) of 1.03.

For O=C(O)c1ccc(-c2c[nH]c3ncc(-c4ccccc4)cc23)cc1C1CCCC1 + Cc1nc(Nc2ncc(C(=O)Nc3c(C)cccc3Cl)s2)cc(N2CCN(CCO)CC2)n1 [Dasatinib] (partner 0.075 µM), the relative viability ([1]; first compound 0.04 µM) was 0.588, the relative viability ([1]; first compound 0.1265 µM) was 0.629 and the relative viability ([1]; first compound 0.4 µM) was 0.551. The relative viability ([1]; first compound 1.265 µM) was 0.604, the relative viability ([2]; first compound 0.04 µM) was 0.547 and the relative viability ([2]; first compound 0.1265 µM) was 0.512. For the same molecule, the relative viability ([2]; first compound 0.4 µM) was 0.564, the relative viability ([2]; first compound 1.265 µM) was 0.675 and the relative viability ([3]; first compound 0.04 µM) was 0.537. For the same molecule, the relative viability ([3]; first compound 0.1265 µM) was 0.502, the relative viability ([3]; first compound 0.4 µM) was 0.535 and the relative viability ([3]; first compound 1.265 µM) was 0.545. For the same molecule, the relative viability ([4]; first compound 0.04 µM) was 0.641, the relative viability ([4]; first compound 0.1265 µM) was 0.634 and the relative viability ([4]; first compound 0.4 µM) was 0.642. It also gave a relative viability ([4]; first compound 1.265 µM) of 0.488, a relative viability ([5]; first compound 0.04 µM) of 0.833 and a relative viability ([5]; first compound 0.1265 µM) of 0.887. For the same molecule, the relative viability ([5]; first compound 0.4 µM) was 0.714 and the relative viability ([5]; first compound 1.265 µM) was 0.851.

For O=C(O)c1ccc(-c2c[nH]c3ncc(-c4ccccc4)cc23)cc1C1CCCC1 + N=C(N)NC(=N)NCCc1ccccc1 [Phenformin] (partner 250 µM), the relative viability ([6]; first compound 0.04 µM) was 0.168, the relative viability ([6]; first compound 0.1265 µM) was 0.197 and the relative viability ([6]; first compound 0.4 µM) was 0.187. It also gave a relative viability ([6]; first compound 1.265 µM) of 0.0803, a relative viability ([1]; first compound 0.04 µM) of 0.272 and a relative viability ([1]; first compound 0.1265 µM) of 0.232. It also gave a relative viability ([1]; first compound 0.4 µM) of 0.229, a relative viability ([1]; first compound 1.265 µM) of 0.181 and a relative viability ([2]; first compound 0.04 µM) of 0.249. It also gave a relative viability ([2]; first compound 0.1265 µM) of 0.225, a relative viability ([2]; first compound 0.4 µM) of 0.245 and a relative viability ([2]; first compound 1.265 µM) of 0.219. The relative viability ([3]; first compound 0.04 µM) was 0.618, the relative viability ([3]; first compound 0.1265 µM) was 0.575 and the relative viability ([3]; first compound 0.4 µM) was 0.615. It also gave a relative viability ([3]; first compound 1.265 µM) of 0.564, a relative viability ([4]; first compound 0.04 µM) of 0.571 and a relative viability ([4]; first compound 0.1265 µM) of 0.581. For the same molecule, the relative viability ([4]; first compound 0.4 µM) was 0.505, the relative viability ([4]; first compound 1.265 µM) was 0.441 and the relative viability ([5]; first compound 0.04 µM) was 0.686. For the same molecule, the relative viability ([5]; first compound 0.1265 µM) was 0.724, the relative viability ([5]; first compound 0.4 µM) was 0.549 and the relative viability ([5]; first compound 1.265 µM) was 0.65.

For O=C(O)c1ccc(-c2c[nH]c3ncc(-c4ccccc4)cc23)cc1C1CCCC1 + O=C(c1cc(Cc2n[nH]c(=O)c3ccccc23)ccc1F)N1CCN(C(=O)C2CC2)CC1 [Olaparib] (partner 8 µM), the relative viability ([6]; first compound 0.04 µM) was 0.224, the relative viability ([6]; first compound 0.1265 µM) was 0.674 and the relative viability ([6]; first compound 0.4 µM) was 0.345. For the same molecule, the relative viability ([6]; first compound 1.265 µM) was 0.307, the relative viability ([1]; first compound 0.04 µM) was 1.03 and the relative viability ([1]; first compound 0.1265 µM) was 0.726. The relative viability ([1]; first compound 0.4 µM) was 0.611, the relative viability ([1]; first compound 1.265 µM) was 1.1 and the relative viability ([7]; first compound 0.04 µM) was 0.521. It also gave a relative viability ([7]; first compound 0.1265 µM) of 0.56, a relative viability ([7]; first compound 0.4 µM) of 0.488 and a relative viability ([7]; first compound 1.265 µM) of 0.395. It also gave a relative viability ([8]; first compound 0.04 µM) of 0.692, a relative viability ([8]; first compound 0.1265 µM) of 0.626 and a relative viability ([8]; first compound 0.4 µM) of 0.618. It also gave a relative viability ([8]; first compound 1.265 µM) of 0.406, a relative viability ([2]; first compound 0.04 µM) of 0.88 and a relative viability ([2]; first compound 0.1265 µM) of 0.931. It also gave a relative viability ([2]; first compound 0.4 µM) of 0.866, a relative viability ([2]; first compound 1.265 µM) of 0.657 and a relative viability ([9]; first compound 0.04 µM) of 0.836. For the same molecule, the relative viability ([9]; first compound 0.1265 µM) was 0.758, the relative viability ([9]; first compound 0.4 µM) was 0.846 and the relative viability ([9]; first compound 1.265 µM) was 0.719. For the same molecule, the relative viability ([10]; first compound 0.04 µM) was 0.964, the relative viability ([10]; first compound 0.1265 µM) was 1 and the relative viability ([10]; first compound 0.4 µM) was 0.893. It also gave a relative viability ([10]; first compound 1.265 µM) of 0.821, a relative viability ([11]; first compound 0.04 µM) of 0.676 and a relative viability ([11]; first compound 0.1265 µM) of 1.15. For the same molecule, the relative viability ([11]; first compound 0.4 µM) was 0.763, the relative viability ([12]; first compound 0.04 µM) was 0.57 and the relative viability ([12]; first compound 0.1265 µM) was 0.468. For the same molecule, the relative viability ([12]; first compound 0.4 µM) was 0.382, the relative viability ([12]; first compound 1.265 µM) was 0.49 and the relative viability ([4]; first compound 0.04 µM) was 0.884. The relative viability ([4]; first compound 0.1265 µM) was 0.861, the relative viability ([4]; first compound 0.4 µM) was 0.853 and the relative viability ([4]; first compound 1.265 µM) was 0.64. The relative viability ([5]; first compound 0.04 µM) was 0.816, the relative viability ([5]; first compound 0.1265 µM) was 0.673 and the relative viability ([5]; first compound 0.4 µM) was 0.596. It also gave a relative viability ([5]; first compound 1.265 µM) of 0.755.
